# Results: patent publication US20250346602A1, “LACTAM SUBSTITUTED IMIDAZOPYRIDAZINE IL-17A MODULATORS AND USES THEREOF” (DICE ALPHA, INC., priority 2022, published 2025)
# Target: T1, IL-17A/A (Homo sapiens, UniProt Q16552)
# T1 construct: purchased Genscript Z03228
# T1 sequence (Q16552 24-155): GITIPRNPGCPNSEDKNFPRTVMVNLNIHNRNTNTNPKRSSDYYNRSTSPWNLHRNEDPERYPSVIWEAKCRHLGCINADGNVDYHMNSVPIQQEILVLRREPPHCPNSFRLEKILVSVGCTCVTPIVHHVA
# Experiment: IL-17A/A HEK-Blue cell assay
# Format: cell-based
# Details: HEK-Blue IL-17A reporter cell line (HEK 293), IL-17A/A stimulation, 20 hours incubation, SEAP read at A630
# Procedure, shortened: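 IC50 came from a 4-parameter fit of SEAP read at A630 (Quanti-Blue). Compound was titrated to a top final concentration of 10, 1 or 0.3 uM with 0.1% final DMSO and added just before IL-17A/A. Incubation lasted 20 hours in HEK293 cells engineered with IL-17RA, IL-17RC, Act1 and an NFκB-SEAP reporter.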
row,Structure (SMILES),IC50
1,"O=C(N[C@H](c1cn2nc(CC3C[C@@H](C(F)(F)F)CNC3=O)ccc2n1)[C@H]1CCCC(F)(F)C1)c1conc1C1CC1 (stereo partly drawn) [Compound 146, 3-cyclopropyl-N-((1S)—((S)-3,3-difluorocyclohexyl)(6-(((5R)-2-oxo-5-(trifluoromethyl)piperidin-3-yl)methyl)imidazo[1,2-b]pyridazin-2-yl)methyl)isoxazole-4-carboxamide]",< 100 nM
2,"O=C(N[C@H](c1cn2nc(CC3C[C@@H](C(F)(F)F)CNC3=O)ccc2n1)[C@@H]1CCCC(F)(F)C1)c1conc1C1CC1 (stereo partly drawn) [Compound 147, 3-cyclopropyl-N-((1S)—((R)-3,3-difluorocyclohexyl)(6-(((5R)-2-oxo-5-(trifluoromethyl)piperidin-3-yl)methyl)imidazo[1,2-b]pyridazin-2-yl)methyl)isoxazole-4-carboxamide]",100 to 1000 nM
3,"CC(C)n1nccc1C(=O)N[C@H](c1cn2nc(CC3C[C@@H](C(F)(F)F)CNC3=O)ccc2n1)[C@H]1CCCC(F)(F)C1 (stereo partly drawn) [Compound 148, N-((1S)—((S)-3,3-difluorocyclohexyl)(6-(((5R)-2-oxo-5-(trifluoromethyl)piperidin-3-yl)methyl)imidazo[1,2-b]pyridazin-2-yl)methyl)-1-isopropyl-1H-pyrazole-5-carboxamide]",< 100 nM
4,"CC(C)n1nccc1C(=O)N[C@H](c1cn2nc(CC3C[C@@H](C(F)(F)F)CNC3=O)ccc2n1)[C@@H]1CCCC(F)(F)C1 (stereo partly drawn) [Compound 149, N-((1S)—((R)-3,3-difluorocyclohexyl)(6-(((5R)-2-oxo-5-(trifluoromethyl)piperidin-3-yl)methyl)imidazo[1,2-b]pyridazin-2-yl)methyl)-1-isopropyl-1H-pyrazole-5-carboxamide]",< 100 nM
5,"CC(C)c1nonc1C(=O)N[C@H](c1cn2nc(CC3C[C@@H](C(F)(F)F)CNC3=O)ccc2n1)[C@H]1CCCC(F)(F)C1 (stereo partly drawn) [Compound 150, N-((1S)—((S)-3,3-difluorocyclohexyl)(6-(((5R)-2-oxo-5-(trifluoromethyl)piperidin-3-yl)methyl)imidazo[1,2-b]pyridazin-2-yl)methyl)-4-isopropyl-1,2,5-oxadiazole-3-carboxamide]",< 100 nM
6,"CC(C)c1nonc1C(=O)N[C@H](c1cn2nc(CC3C[C@@H](C(F)(F)F)CNC3=O)ccc2n1)[C@@H]1CCCC(F)(F)C1 (stereo partly drawn) [Compound 151, N-((1S)—((R)-3,3-difluorocyclohexyl)(6-(((5R)-2-oxo-5-(trifluoromethyl)piperidin-3-yl)methyl)imidazo[1,2-b]pyridazin-2-yl)methyl)-4-isopropyl-1,2,5-oxadiazole-3-carboxamide]",< 100 nM
7,"CCn1nccc1C(=O)N[C@H](c1cn2nc(CC3C[C@H](C(F)(F)F)CNC3=O)ccc2n1)C1CCC(F)(F)CC1 (stereo partly drawn) [Compound 152, N-((1S)-(4,4-difluorocyclohexyl)(6-(((5S)-2-oxo-5-(trifluoromethyl)piperidin-3-yl)methyl)imidazo[1,2-b]pyridazin-2-yl)methyl)-1-ethyl-1H-pyrazole-5-carboxamide]",100 to 1000 nM
8,"CCn1nccc1C(=O)N[C@H](c1cn2nc(CC3C[C@H](C(F)(F)F)CNC3=O)ccc2n1)C(C1CC1)C1CC1 (stereo partly drawn) [Compound 153, N-((1S)-2,2-dicyclopropyl-1-(6-(((5S)-2-oxo-5-(trifluoromethyl)piperidin-3-yl)methyl)imidazo[1,2-b]pyridazin-2-yl)ethyl)-1-ethyl-1H-pyrazole-5-carboxamide]",100 to 1000 nM
9,"CCn1nccc1C(=O)N[C@H](c1cn2nc(CC3C[C@H](C(F)(F)F)CNC3=O)ccc2n1)[C@H]1CC[C@H](C)CC1 (stereo partly drawn) [Compound 154, 1-Ethyl-N-((1S)-((1R.4S)-4-methylcyclohexyl)(6-(((5S)-2-oxo-5-(trifluoromethyl)piperidin-3-yl)methyl)imidazo[1,2-b]pyridazin-2-yl)methyl)-1H-pyrazole-5-carboxamide]",< 100 nM
10,"O=C(N[C@H](c1cn2nc(CC3C[C@H](C(F)(F)F)CNC3=O)ccc2n1)[C@H]1CCCC(F)(F)C1)c1nonc1C1CC1 (stereo partly drawn) [Compound 155, 4-cyclopropyl-N—((S)-((S)-3,3-difluorocyclohexyl)(6-(((5S)-2-oxo-5-(trifluoromethyl)piperidin-3-yl)methyl)imidazo[1,2-b]pyridazin-2-yl)methyl)-1,2,5-oxadiazole-3-carboxamide]",< 100 nM
11,"O=C(N[C@H](c1cn2nc(CC3C[C@H](C(F)(F)F)CNC3=O)ccc2n1)[C@@H]1CCCC(F)(F)C1)c1nonc1C1CC1 (stereo partly drawn) [Compound 156, 4-cyclopropyl-N—((S)-((R)-3,3-difluorocyclohexyl)(6-(((5S)-2-oxo-5-(trifluoromethyl)piperidin-3-yl)methyl)imidazo[1,2-b]pyridazin-2-yl)methyl)-1,2,5-oxadiazole-3-carboxamide]",100 to 1000 nM
12,"O=C(N[C@H](c1cn2nc(CC3C[C@H](C(F)(F)F)CNC3=O)ccc2n1)[C@H]1CCCC(F)(F)C1)c1conc1C1CC1 (stereo partly drawn) [Compound 157, 3-cyclopropyl-N-((1S)—((S)-3,3-difluorocyclohexyl)(6-(((5S)-2-oxo-5-(trifluoromethyl)piperidin-3-yl)methyl)imidazo[1,2-b]pyridazin-2-yl)methyl)isoxazole-4-carboxamide]",< 100 nM
13,"O=C(N[C@H](c1cn2nc(CC3C[C@H](C(F)(F)F)CNC3=O)ccc2n1)[C@@H]1CCCC(F)(F)C1)c1conc1C1CC1 (stereo partly drawn) [Compound 158, 3-cyclopropyl-N-((1S)—((R)-3,3-difluorocyclohexyl)(6-(((5S)-2-oxo-5-(trifluoromethyl)piperidin-3-yl)methyl)imidazo[1,2-b]pyridazin-2-yl)methyl)isoxazole-4-carboxamide]",100 to 1000 nM
14,"CC(C)n1nccc1C(=O)N[C@H](c1cn2nc(CC3C[C@H](C(F)(F)F)CNC3=O)ccc2n1)[C@H]1CCCC(F)(F)C1 (stereo partly drawn) [Compound 159, N-((1S)—((S)-3,3-difluorocyclohexyl)(6-(((5S)-2-oxo-5-(trifluoromethyl)piperidin-3-yl)methyl)imidazo[1,2-b]pyridazin-2-yl)methyl)-1-isopropyl-1H-pyrazole-5-carboxamide]",< 100 nM
15,"CC(C)n1nccc1C(=O)N[C@H](c1cn2nc(CC3C[C@H](C(F)(F)F)CNC3=O)ccc2n1)[C@@H]1CCCC(F)(F)C1 (stereo partly drawn) [Compound 160, N-((1S)—((R)-3,3-difluorocyclohexyl)(6-(((5S)-2-oxo-5-(trifluoromethyl)piperidin-3-yl)methyl)imidazo[1,2-b]pyridazin-2-yl)methyl)-1-isopropyl-1H-pyrazole-5-carboxamide]",< 100 nM
16,"C[C@H]1CC[C@H]([C@H](NC(=O)c2conc2C2CC2)c2cn3nc(CC4C[C@@H](C(F)(F)F)CNC4=O)ccc3n2)CC1 (stereo partly drawn) [Compound 161, 3-cyclopropyl-N-((1S)-((1R.4S)-4-methylcyclohexyl)(6-(((5R)-2-oxo-5-(trifluoromethyl)piperidin-3-yl)methyl)imidazo[1,2-b]pyridazin-2-yl)methyl)isoxazole-4-carboxamide]",< 100 nM
17,"Cn1nccc1C(=O)N[C@H](c1cn2nc(CC3C[C@@H](C(F)(F)F)CNC3=O)ccc2n1)[C@H]1CC[C@H](C)CC1 (stereo partly drawn) [Compound 162, 1-methyl-N-((1S)-((1R.4S)-4-methylcyclohexyl)(6-(((5R)-2-oxo-5-(trifluoromethyl)piperidin-3-yl)methyl)imidazo[1,2-b]pyridazin-2-yl)methyl)-1H-pyrazole-5-carboxamide]",100 to 1000 nM
18,"CC(C)n1nncc1C(=O)N[C@H](c1cn2nc(CC3C[C@@H](C(F)(F)F)CNC3=O)ccc2n1)[C@H]1CC[C@H](C)CC1 (stereo partly drawn) [Compound 163, N-((1S)-((1R.4S)-4-methylcyclohexyl)(6-(((5R)-2-oxo-5-(trifluoromethyl)piperidin-3-yl)methyl)imidazo[1,2-b]pyridazin-2-yl)methyl)-1-isopropyl-1H-1,2,3-triazole-5-carboxamide]",100 to 1000 nM
19,"C[C@H]1CC[C@H]([C@H](NC(=O)c2nonc2N)c2cn3nc(CC4C[C@@H](C(F)(F)F)CNC4=O)ccc3n2)CC1 (stereo partly drawn) [Compound 164, 4-amino-N-((1S)—((1R.4S)-4-methylcyclohexyl)(6-(((5R)-2-oxo-5-(trifluoromethyl)piperidin-3-yl)methyl)imidazo[1,2-b]pyridazin-2-yl)methyl)-1,2,5-oxadiazole-3-carboxamide]",> 1000 nM
20,"Cc1nonc1C(=O)N[C@H](c1cn2nc(CC3C[C@@H](C(F)(F)F)CNC3=O)ccc2n1)[C@H]1CC[C@H](C)CC1 (stereo partly drawn) [Compound 165, 4-Methyl-N-((1S)-((1R.4S)-4-methylcyclohexyl)(6-(((5R)-2-oxo-5-(trifluoromethyl)piperidin-3-yl)methyl)imidazo[1,2-b]pyridazin-2-yl)methyl)-1,2,5-oxadiazole-3-carboxamide]",100 to 1000 nM
21,"CCn1ncnc1C(=O)N[C@H](c1cn2nc(CC3C[C@@H](C(F)(F)F)CNC3=O)ccc2n1)[C@H]1CC[C@H](C)CC1 (stereo partly drawn) [Compound 166, N-((1S)-((1R.4S)-4-methylcyclohexyl)(6-(((5R)-2-oxo-5-(trifluoromethyl)piperidin-3-yl)methyl)imidazo[1,2-b]pyridazin-2-yl)methyl)-1-ethyl-1H-1,2,4-triazole-5-carboxamide]",> 1000 nM
22,"C[C@H]1CC[C@H]([C@H](NC(=O)c2ccnn2CCO)c2cn3nc(CC4C[C@@H](C(F)(F)F)CNC4=O)ccc3n2)CC1 (stereo partly drawn) [Compound 167, 1-(2-hydroxyethyl)-N—((S)-((1R.4S)-4-methylcyclohexyl)(6-(((3R.5R)-2-oxo-5-(trifluoromethyl)piperidin-3-yl)methyl)imidazo[1,2-b]pyridazin-2-yl)methyl)-1H-pyrazole-5-carboxamide]",100 to 1000 nM
